Assay results reported in patent US20200188468A1, “A COATED COSTUS COMPOSITION ENRICHED WITH TRITERPENOIDS AND A METHOD OF PREPARATION OF THE SAME” (priority 2017, published 2020).

Experiments:
Format in all cases: in vivo, Wistar rats
[1] = test system: streptozotocin-induced diabetic rats; assay: Fasting blood glucose level, 30 days treatment; conditions: STZ diabetic rats, glibenclamide 1 mg/kg, Samples 1-3 100 mg/kg, Product-1 and -2 50 mg/kg, Product-3 10 mg/kg orally
Experimental: (§1) Adult Wistar rats weighing 200-250 gm were selected at random; the animals were kept in standard animal house conditions at 24±2° C., 65% relative humidity and 12 h light/dark cycle. After five days of acclimatisation, diabetes was induced by injecting streptozotocin 35 mg/kg dissolved in 0.1M citrate buffer of pH 4.5, intraperitoneally, as standardised in our laboratory. Five days after induction of diabetes (day 1 of the study), animals fasted for 12 hours and the fasting blood glucose level (FBG) was estimated for diagnosing diabetic rats. Animals having FBG more than 250 mg/dl were included in the study.
(§2) Six normal healthy rats were allocated to Group I; streptozotocin-induced diabetic rats were randomly allocated to Groups 2 to 9 with 6 rats in each group. The animals were treated for 30 days as per below experimental design:
(§3) Group 3—Positive control—diabetic animals administered with glibenclamide at 1 mg/kg Body wt orally for 30 days.
(§4) Group 4—diabetic animals administered with Sample 1 at 100 mg/kg Body wt orally for 30 days.
(§5) Group 5—diabetic animals administered with Sample 2 at 100 mg/kg Body wt orally for 30 days.
(§6) Group 6—diabetic animals administered with of Sample 3 at 100 mg/kg Body wt orally for 30 days.
(§7) Group 7—diabetic animals administered with Product-1 at 50 mg/kg Body wt orally for 30 days.
(§8) Group 8—diabetic animals administered with Product-2 at 50 mg/kg Body wt orally for 30 days.
(§9) Group 9—diabetic animals administered with of Product-3 at 10 mg/kg Body wt orally for 30 days.
FBG was measured on Day 0, Day 15 and Day 30. OGTT was also performed on Day 0, Day 15 and Day 30.

[2] = test system: streptozotocin-induced diabetic rats; assay: Postprandial glucose levels (OGTT) of costus in various dosages; conditions: STZ diabetic rats, 1 mg/kg oral
Experimental: Adult Wistar rats weighing 200-250 gm were selected at random; the animals were kept in standard animal house conditions at 24±2° C., 65% relative humidity and 12 h light/dark cycle. The animals were acclimatized for a period of five days and fed with standard pellet diet and water. Six healthy rats were separated at random from the lot and diabetes was induced in rest by a single intra-peritoneal injection of streptozotocin (STZ) at 35 mg/kg. Fasting blood sugar (FBS) was measured after seven days of STZ injection and rats having FBS more than 200 mg/dl were considered as diabetic. The diabetic rats were separated out and randomly divided into 11 groups having six rats in each. Six normal healthy rats were allocated to Group I; STZ induced diabetic rats were randomly allocated to Groups 2 to 12.
(§10) Oral glucose tolerance test (OGTT) was performed following a glucose challenge of 2 g/kg by oral gavages. It was to test the ability of body cells to absorb glucose after you ingest a given amount of sugar. Blood glucose was recorded at 30 min, 60 min, 120 min and 180 min, after the glucose challenge on day of the study.
Just after glucose challenge test a specific Doses of Sample-1 (from example 1) and Product-2 (from example 4) were administered through oral gavages. The dosages for Sample-1 and Product-1 were in a range of 25 mg/kg Body wt to 300 mg/kg Body wt. In one of the groups animals were administered with glibenclamide.
Group 2—Positive control—diabetic animals administered with glibenclamide at 1 mg/kg Body wt orally for 30 days.
Group 3—diabetic animals administered with Sample-2 at 25 mg/kg Body wt orally for 30 days.
Group 4—diabetic animals administered with Sample-2 at 50 mg/kg Body wt orally for 30 days.
Group 5—diabetic animals administered with Sample-2 at 75 mg/kg Body wt orally for 30 days.
Group 6—diabetic animals administered with Sample-2 at 100 mg/kg Body wt orally for 30 days.
Group 7—diabetic animals administered with Sample-2 at 150 mg/kg Body wt orally for 30 days.
Group 8—diabetic animals administered with Sample-2 at 300 mg/kg Body wt orally for 30 days.
Group 9—diabetic animals administered with Product-2 at 25 mg/kg Body wt orally for 30 days.
Group 10—diabetic animals administered with Product-2 at 50 mg/kg Body wt orally for 30 days.
Group 11—diabetic animals administered with Product-2 at 75 mg/kg Body wt orally for 30 days.
Group 12—diabetic animals administered with Product-2 at 100 mg/kg Body wt orally for 30 days.
Group 13—diabetic animals administered with Product-2 at 150 mg/kg Body wt orally for 30 days.

[3] = test system: high-fat diet-induced insulin resistance rats; assay: High fat diet-induced insulin resistance model (Type 2 diabetes); conditions: HFD rats
Experimental: The study was designed to evaluate the effect of different fractions and compositions of costus on high fat-induced resistance Type-2 diabetic model (HFD). Adult Wistar rats were allowed free access to food and water. They were housed under identical standard conditions. The animals were kept for acclimatisation for a period of 7 days. After 7 days, the animals were randomly divided into six groups of six rats each. The normal control group was treated with normal regular diet and the rest of the animals were fed with high-fat diet for 6 weeks. After 6 weeks, Sample-1, Sample-3, and Product-2 were administered at a specific dosage as per their groups for 6 consecutive weeks. The experimental design was as follows:
as §3
Group 4—diabetic animals administered with Sample-1 at 300 mg/kg Body wt orally for 30 days.
Group 5—diabetic animals administered with Sample-3 at 100 mg/kg Body wt orally for 30 days.
Group 6—diabetic animals administered with of Product-2 at 50 mg/kg Body wt orally for 30 days.
Body weights were determined weekly. At the end of experimental period, blood samples were collected to determine plasma glucose, insulin, glycosylated haemoglobin, triglycerides, and total cholesterol, LDL, HDL and VLDL.

[4] = test system: streptozotocin and HFD diabetic rats; assay: Streptozotocin plus high fat diet Type 2 diabetes model, coated versus uncoated costus extract; conditions: STZ + HFD diabetic rats
Experimental: Wistar rats were selected at random; the animals were kept in standard animal house conditions at 24±2° C., 65% relative humidity and 12 h light/dark cycle. The animals were acclimatized for a period of five days and fed with standard pellet diet and water. Fasted male Wistar rats were intraperitoneally injected with freshly prepared solution of streptozotocin (STZ) (35 mg/kg). After injection, all the animals were continued on the standard rodent diet for 2 weeks. At the end of 2 weeks after STZ injection; 1 ml of blood was collected from retro-orbital plexus of each rat. Blood was allowed to clot for 30 min the serum was separated by centrifuging at 1008 G-force for 20 min at 8.0° C. in a cold centrifuge. The serum separated from the blood of each animal was used for the estimation of glucose. All the samples were analysed calorimetrically in Autoanalyzer (MERCK MICROLAB 300) using commercial kits. The development of hyperglycaemia in these rats was thus confirmed by measuring fasting blood glucose levels. The rats with the fasting PGL of ≥200 mg dl−1 were considered diabetic and selected for further dietary manipulation. 350 g of standard rodent diet was powdered and mixed with 60 g of lard, 45 g of yolk powder, and 45 g of plantation white sugar (HFD diet). The above mixture is pelleted and used to feed the rats for 2 weeks to induce diabetic dyslipidaemia. Required amount of the diet was freshly prepared on a daily basis. At the end of 2nd week the blood was collected from each animal for determination of glucose levels as described above.
After the second fasting blood glucose estimation, at the end of 4th week, the rats were divided into 6 groups of 6 rats each: Group-1 consisted of age-matched non-diabetic normal rats that neither received streptozotocin nor the high-fat diet and served as normal; Group 2 consisted of diabetic rats without any drug treatment and served as untreated control; Group 3 consisted of diabetic rats and received standard drug, Glibenclamide. Group 4 consisted of diabetic rats and received excipients. Group 5 consisted of diabetic rats and sample 2. Group 6 consisted of diabetic rats and product 2. The high fat diet was continued for the rest of the study duration.
Group 3—Diabetic, HFD administered group treated with Glibenclamide at 2.5 mg/Kg p.o. body weight.
Group 5—Diabetic, HFD administered group treated with sample 2 for at 40 mg/kg twice daily.
Group 6—Diabetic, HFD administered group treated with product-2 at 100 mg/kg twice daily.
Body weights were determined biweekly. At the end of experimental period, blood samples were collected to determine plasma glucose, insulin, leptin, glycosylated hemoglobin, triglycerides, total cholesterol, LDL, HDL and VLDL.

[5] = test system: streptozotocin-induced diabetic rats; assay: Oral glucose tolerance test on day 1, 15 and 30 of 30 days treatment; conditions: STZ diabetic rats, doses as in E42
Experimental: as §1, §2, §3, §4, §5, §6, §7, §8, §9
as §10, with “30 min (PPG1),” for “30 min,”, “60 min (PPG2),” for “60 min,”, “min (PPG3)” for “min”, “180 min (PPG4),” for “180 min,”, “day 1, day 15 and day 30” for “day”

[6] = end of experimental period, doses as in E59

COc1ccc(Cl)cc1C(=O)NCCc1ccc(S(=O)(=O)NC(=O)NC2CCCCC2)cc1 [glibenclamide]
Fasting blood glucose level 0th day ([1]; day 0): 388 mg/dL
Fasting blood glucose level 15th day ([1]; day 15): 266 mg/dL
Fasting blood glucose level 30th day ([1]; day 30): 142 mg/dL
Postprandial glucose level 30 min ([2]; 30 min after 2 g/kg glucose): 294 mg/dL
Postprandial glucose level 60 min ([2]; 60 min after 2 g/kg glucose): 170 mg/dL
Postprandial glucose level 120 min ([2]; 120 min after 2 g/kg glucose): 127 mg/dL
Postprandial glucose level 180 min ([2]; 180 min after 2 g/kg glucose): 101 mg/dL
Blood glucose [3, 6]: 142 mg/dL
Glycosylated Hb [3, 6]: 0.5 % of total Hb
HDL [3, 6]: 27 mg/dL
LDL [3, 6]: 55 mg/dL
TC [3, 6]: 91.4 mg/dL
TG [3, 6]: 47 mg/dL
VLDL [3, 6]: 9.4 mg/dL
Insulin ([3]; serum, end of experimental period, doses as in E59): 1.7 ng/mL
Body weight, week 0 ([3]; week 0, glibenclamide 1 mg/kg, Sample-1 300 mg/kg, Sample-3 100 mg/kg, Product-2 50 mg/kg orally): 216 grams
Average Body weight at weekly interval, week 2 ([3]; week 2, doses as in E59): 259 grams
Average Body weight at weekly interval, week 3 ([3]; week 3, doses as in E59): 274 grams
Average Body weight at weekly interval, week 4 ([3]; week 4, doses as in E59): 280 grams
Average Body weight at weekly interval, week 5 ([3]; week 5, doses as in E59): 270 grams
Average Body weight at weekly interval, week 6 ([3]; week 6, doses as in E59): 248 grams
Glycosylated Hb ([4]; after 28 days, doses as in E92): 0.5 % of total Hb
HDL ([4]; after 28 days, doses as in E92): 25 mg/dL
LDL ([4]; after 28 days, doses as in E92): 92 mg/dL
TC ([4]; after 28 days, doses as in E92): 136.4 mg/dL
TG ([4]; after 28 days, doses as in E92): 97 mg/dL
VLDL ([4]; after 28 days, doses as in E92): 19.4 mg/dL
Body weight at biweekly interval, 0 ([4]; interval 0, Glibenclamide 2.5 mg/kg p.o., sample 2 40 mg/kg, product-2 100 mg/kg twice daily): 168 grams
Body weight at biweekly interval, 2 ([4]; interval 2, doses as in E92): 174 grams
Body weight at biweekly interval, 4 ([4]; interval 4, doses as in E92): 180 grams
Body weight at biweekly interval, 6 ([4]; interval 6, doses as in E92): 187 grams
Body weight at biweekly interval, 8 ([4]; interval 8, doses as in E92): 192 grams
Insulin ([4]; serum, after 28 days, doses as in E92): 1.58 ng/mL
PPG 30 min, Day 1 ([5]; Day 1, 30 min after 2 g/kg glucose): 294 mg/dL
PPG 60 min, Day 1 ([5]; Day 1, 60 min after 2 g/kg glucose): 232 mg/dL
PPG 120 min, Day 1 ([5]; Day 1, 120 min after 2 g/kg glucose): 226 mg/dL
PPG 180 min, Day 1 ([5]; Day 1, 180 min after 2 g/kg glucose): 158 mg/dL
PPG 30 min, Day 15 ([5]; Day 15, 30 min after 2 g/kg glucose): 285 mg/dL
PPG 60 min, Day 15 ([5]; Day 15, 60 min after 2 g/kg glucose): 225 mg/dL
PPG 120 min, Day 15 ([5]; Day 15, 120 min after 2 g/kg glucose): 219 mg/dL
PPG 180 min, Day 15 ([5]; Day 15, 180 min after 2 g/kg glucose): 153 mg/dL
PPG 30 min, Day 30 ([5]; Day 30, 30 min after 2 g/kg glucose): 276 mg/dL
PPG 60 min, Day 30 ([5]; Day 30, 60 min after 2 g/kg glucose): 218 mg/dL
PPG 120 min, Day 30 ([5]; Day 30, 120 min after 2 g/kg glucose): 212 mg/dL
PPG 180 min, Day 30 ([5]; Day 30, 180 min after 2 g/kg glucose): 148 mg/dL
